Measurements published in patent publication US11634426B2, “Selective estrogen receptor degraders” (Eli Lilly and Company, priority 2018, dated 2023).

The compounds below were run against ERα receptor (Homo sapiens (Human), UniProt P03372) (assay: PRα induction assay in MCF7 cells (ERα agonism)).
ERα receptor, sequence (P03372 whole entry): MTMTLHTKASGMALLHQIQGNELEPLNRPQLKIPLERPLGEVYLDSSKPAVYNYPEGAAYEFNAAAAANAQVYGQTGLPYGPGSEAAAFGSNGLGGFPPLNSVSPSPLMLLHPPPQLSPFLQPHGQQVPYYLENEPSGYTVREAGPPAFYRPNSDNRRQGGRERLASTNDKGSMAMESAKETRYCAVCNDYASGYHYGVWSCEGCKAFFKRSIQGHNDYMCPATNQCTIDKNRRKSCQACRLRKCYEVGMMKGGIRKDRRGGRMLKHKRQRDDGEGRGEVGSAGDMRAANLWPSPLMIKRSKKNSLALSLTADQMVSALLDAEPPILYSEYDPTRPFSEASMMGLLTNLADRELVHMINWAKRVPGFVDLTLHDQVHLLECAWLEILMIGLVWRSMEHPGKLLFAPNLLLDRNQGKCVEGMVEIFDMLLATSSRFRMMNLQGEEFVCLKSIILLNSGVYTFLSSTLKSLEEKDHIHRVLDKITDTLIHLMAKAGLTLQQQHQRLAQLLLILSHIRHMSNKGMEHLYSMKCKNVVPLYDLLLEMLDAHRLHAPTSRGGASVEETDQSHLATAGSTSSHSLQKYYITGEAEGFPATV
Format: cell-based
Description: The purpose of the following PRα induction assay is to determine whether a test compound has agonistic activity against ERα receptor (an agonist would be expected to activate the receptor).
Culture MCF7 (purchased from ATCC HTB-22) in DMEM media supplemented with 10% FBS, 0.01 mg/mL human insulin 1 and 1% penicillin/streptomycin antibiotics and plate the cells (prior to becoming 70% confluent) in 384-well flat-bottom plates at a density of 4,000 cells per well in 20 μL volume in DMEM phenol red free media containing 10% FBS (charcoal stripped). Incubate the cells overnight in a cell culture incubator (5% CO2, 95% relative humidity at 37° C.) and allow the cells to attach to the plate. The following day, dose the cells with test compound. Use an Echo 555 acoustic dispenser to prepare compound serial dilutions (1:3) in a range from 6 μM to 0.0003 μM. Dose the cells with the addition of the test compound (5 μL) from the serial dilution plate to the cell plate producing a final DMSO concentration of 0.2% with a final concentration of the test compound dose range between 2 and 0.0001 μM. For the maximum point use media containing 0.2% of DMSO and for the minimum point, use fulvestrant diluted at […] final concentrations in the growth media containing 0.2% DMSO. After dosing with the test compound, incubate the cell plates at 37° C. and 5% CO2 for 24 hours. Fix the cells by adding 14% para-formaldehyde (10 μL) for 30 minutes at room temperature. Wash cells once with PBS (20 μL) and incubate with PBS (20 μL) containing 0.5% (v/v) TWEEN® 20 for 1 hour. Wash cells twice with PBS (20 μL) containing 0.05% TWEEN® 20 and block with 3% BSA in PBS containing 0.05% TWEEN® 20 and 0.1% TRITON™ X-100 (20 μL/well) for 1 hour at room temperature. […]
The following day, wash cells with PBS 0.05% TWEEN® 20 (2×20 μL) and incubate with secondary antibody (20 μL/well) (1:1000 dilution, Goat anti-rabbit IgM ALEXA FLUOR™ 488) in PBS 1% BSA for 105 minutes at room temperature. […] Scan plates with ACUMEN EXPLORER™ [Laser-scanning fluorescence microplate cytometer manufactured by TTP LABTECH LTD] to measure PRα. […]
`Oc1ccc2c3c(cnc2c1)-c1ccc(C(F)(F)F)cc1OC3c1ccc(OCCN2CC(CF)C2)cc1` (racemic) [Example 1, Racemic 5-(4-{2-[3-(Fluoromethyl)azetidin-1-yl]ethoxy}phenyl)-8-(trifluoromethyl)-5H-[1]benzopyrano[4,3-c]quinolin-2-ol] was tested, and the “agonistic activity (PRα induction)” value was “no significant agonistic activity”.
For `Oc1ccc2c3c(cnc2c1)-c1ccc(C(F)(F)F)cc1OC3c1ccc(OCCN2CC(CF)C2)cc1` (single isomer, unassigned; isomer 1) [Example 1A, 5-(4-{2-[3-(Fluoromethyl)azetidin-1-yl]ethoxy}phenyl)-8-(trifluoromethyl)-5H-[1]benzopyrano[4,3-c]quinolin-2-ol, Isomer 1], the “agonistic activity (PRα induction)” value was “no significant agonistic activity”.
In the case of `Oc1ccc2c3c(cnc2c1)-c1ccc(C(F)(F)F)cc1OC3c1ccc(OCCN2CC(CF)C2)cc1` (single isomer, unassigned; isomer 2) [Example 1B, 5-(4-{2-[3-(Fluoromethyl)azetidin-1-yl]ethoxy}phenyl)-8-(trifluoromethyl)-5H-[1]benzopyrano[4,3-c]quinolin-2-ol, Isomer 2], the “agonistic activity (PRα induction)” value is reported as “no significant agonistic activity”.
